Assay results reported in patent US6750381B2, “Pathogen-resistant plants transformed with a DNA encoding sarcotoxin 1A linked to a signal peptide and a method for production thereof” (National Institute of Agrobiological Sciences, priority 1996, dated 2004).

Key:
Assay in all cases: Anti-fungal activity of Sarcotoxin 1a in vitro (hyphal area on agar plate)
Type in all cases: cell-based
[1] = test system: Rhizoctonia solani; details: Na2HPO4-NaH2PO4 buffer agarose pH 5.8, 22° C. in the dark; FIG. 14
Description: (§1) Sarcotoxin 1a was measured for an anti-fungal activity against Fusarium oxysporum F-3, Rhizoctonia solani, and Rhizoctonia solani AG-4 1272.
(§2) It has not been known if Sarcotoxin 1a has an anti-fungal activity and how to measure the activity. Therefore, a pre-culture medium and a test medium were variously studied. The pre-culture medium, in which a lawn may be uniformly enlarged within a short period of time, was selected. The test medium, which controls the extension of hyphae as much as possible and allows easy confirmation, was selected.
(§3) (i) Czapek's modified medium (10 g of sucrose, 0.5 g of MgSO4.7H2O, 2.0 g of NaNO3, 0.01 g of Fe2(SO4)3, 1.0 g of K2HPO4, 0.5 g of KCl, 15 g of agarose per liter, pH 6.8 to 7.0; used for Rhizoctonia solani AG-4 1272), (ii) 5-fold diluted PDA medium (7.8 g of Bacto (Trademark) Poteto Dextrose Agar, 12 g of agarose per liter; used for Fusarium oxysporum F-3), (iii) Na2HPO4—NaH2PO4 buffer (15 g/l agarose, pH 5.8; used for Rhizoctonia solani).
(§4) The media for detection were autoclaved. When the media was cooled to 50° C., Sarcotoxin 1a (synthesized by a peptide synthesis and purified to 99% or more by HPLC) was added to each medium. Each of the resulting media was dispensed into a 12-well microplate at 400 μl per well and solidified.
(§5) Fusarium oxysporum F-3, Rhizoctonia solani, and Rhizoctonia solani AG-4 1272 were respectively pre-cultured in a PDA media (39 g/l Bacto (Trademark) Poteto Dextrose Agar) at 22° C. for 2 days.
(§6) An outermost lawn of each hypha spreading over almost the entire surface of the PDA medium of a 9 cm-petri dish was punched with a cork borer with a diameter of 4 mm, and each fungi was placed in the center of a well of a test plate in such a manner that the surface of the layer faced down. Each test plate for detection was kept at 22° C. in the dark.
(§7) Each test plate inoculated with the above-mentioned pathogenic fungi was measured for the size of each hypha growing under transmitted light at established periods, and the area of each hypha and a standard deviation were calculated (see FIGS. 12, 13, and 14). […]

[2] = test system: Fusarium oxysporum F-3; details: 5-fold diluted PDA medium, 22° C. in the dark; FIG. 12
Description: as §1, §2, §3, §4, §5, §6, §7

[3] = test system: Rhizoctonia solani AG-4 1272; details: Czapek's modified medium, 22° C. in the dark; FIG. 13
Description: as §1, §2, §3, §4, §5, §6, §7

Measured: anti-fungal properties (area of each hypha)

Sarcotoxin 1a (GWLKKIGKKIERVGQHTRDATIQGLGIAQQAANVAATAR) [anti-bacterial peptide derived from Boettherisca peregrina (Diptera insect); synthesized by a peptide synthesis and purified to 99% or more by HPLC]
concentration-dependent manner: all assays above
